The values that follow come from patent US20220409647A1, “COMPOSITIONS, METHODS AND KITS FOR ALTERING ADIPOCYTES” (NuSirt Sciences, Inc., priority 2019, published 2022).

Assay [1] has as its system CPT1b. The assay can be described thus: CPT1b gene expression by qRT-PCR in hASC cells. It is filed as cell-based, human. Conditions: 8 μM Naringenin, 30 μM Nicotinamide Riboside or the combination, 6 days. How it is done:
(§1) Human adipose derived stem cells (hASC, LaCell, L.L.C., New Orleans, La.) from two different female overweight (BMI=26) donors were plated at a density of 10000 cells/cm^2 on 96-well plates and 24-well plates in preadipocyte medium (HyClone DMEM/F12 1:1, 10% fetal bovine serum (FBS), 1% Antibiotic/Antimycotic (Penicillin/Streptomycin/amphotericin)) at 37° C. in 5% CO2. […]
(§2) hASC cells were grown in a 96-well plate and treated as indicated. […] Gene expression was assessed by quantitative real-time polymerase chain reaction (qRT-PCR) using StepOnePlus™ PCR system (Thermo Fisher Scientific) and TaqMan Gene expression assays for UCP1 (Invitrogen, assay ID # Hs01084772_m1), Glut 4 (Invitrogen, assay ID # Hs00168966_m1), CPT1b (Invitrogen, assay ID # Hs0046298_s1), PRDM16 (Invitrogen, assay ID # Hs00223161_m1), AdipoQ (Invitrogen, assay ID # HS00605917_m1), ChREBP (Invitrogen, assay ID # HS00975714_m1), ATGL (Invitrogen, assay ID # Hs00982042), and RPL13A (Invitrogen, assay ID #Hs04194366_g1) as endogenous control.
(§3) Results were combined and calculated as fold changes of Control and represented as mean±SEM.

Assay [2] relates to PRDM16. The assay can be described thus: PRDM16 gene expression by qRT-PCR in hASC cells. Conditions: 8 μM Naringenin, 30 μM Nicotinamide Riboside or the combination, 6 days. It is filed as cell-based, human. Here is the method: as §1, §2, §3
Assay [3] has as its system UCP1. The assay can be described thus: UCP1 gene expression by qRT-PCR in hASC cells. It is filed as cell-based, human. Particulars: 8 μM Naringenin, 30 μM Nicotinamide Riboside or the combination, 6 days. Here is the method:
as §1, §2, §3

The subject of assay [4] is AdipoQ. The assay can be described thus: AdipoQ gene expression by qRT-PCR in hASC cells. The format is cell-based, human. Particulars: 8 μM Naringenin, 30 μM Nicotinamide Riboside or the combination, 6 days. Here is the method: as §1, §2, §3
Assay [5] has as its system Glut4. The assay can be described thus: Glut4 gene expression by qRT-PCR in hASC cells. Particulars: 8 μM Naringenin, 30 μM Nicotinamide Riboside or the combination, 6 days. The format is cell-based, human. How it is done:
as §1, §2, §3

For assay [6], the system named is ChREBP. The assay is described as follows: ChREBP gene expression by qRT-PCR in hASC cells. The format is cell-based, human. Conditions: 8 μM Naringenin, 30 μM Nicotinamide Riboside or the combination, 6 days. How it is done: as §1, §2, §3
Assay [7] relates to intracellular NAD+. Conditions: human and animal data (background); cited from earlier work.
In assay [8] the test system is Sirt1. The assay can be described thus: Western blot of Sirt1 in hASC cells. It is filed as cell-based, human. Conditions: 8 μM Naringenin, 30 μM Nicotinamide Riboside or the combination, 6 days. Here is the method:
(§4) Human adipose derived stem cells (hASC, LaCell, L.L.C., New Orleans, La.) from two different female overweight (BMI=26) donors were plated at a density of 10000 cells/cm^2 on 96-well plates and 24-well plates in preadipocyte medium (HyClone DMEM/F12 1:1, 10% fetal bovine serum (FBS), 1% Antibiotic/Antimycotic (Penicillin/Streptomycin/amphotericin)) at 37° C. in 5% CO2. One day after reaching confluence, preadipocytes were induced to differentiate with a differentiation medium consisting of 70% Gibco DMEM (high glucose 4.5 g/L), 30% HyClone DMEM/F12 1:1 (3 g/L glucose), 3% FBS, 1% Antibiotic/Antimycotic, 1 μM Dexamethasone, 33 μM Biotin, 100 nM Insulin, 20 μM Pantothenate, 5 μM Rosiglitazone, 500 μM IBMX. […]
(§5) The Phospho-AMPKα (Thr172)-, AMPK- and Sirt1—antibody was obtained from Cell Signaling (Danvers, Mass.). hASC cells were grown on 24-well plates and treated as indicated. Proteins were extracted by using standard protocols and measured by BCA kit (Thermo Scientific). […] Visualization and chemiluminescent detection was conducted using BioRad ChemiDoc instrumentation and software (Bio-Rad Laboratories, Hercules, Calif.) and band intensity was assessed using Image Lab 4.0 (Bio-Rad Laboratories, Hercules, Calif.), with correction for background. […]

Assay [9] concerns p-AMPK. The assay can be described thus: Western blot of p-AMPK in hASC cells. The format is cell-based, human. Particulars: 8 μM Naringenin, 30 μM Nicotinamide Riboside or the combination, 6 days. How it is done: as §4, §5
Assay [10] concerns hASC cells. The assay is described as follows: Fatty acid oxidation (Seahorse) oxygen consumption. Particulars: Seahorse XF 24; palmitate 200 μM; 8 μM Naringenin or combination with 30 μM NR. It is filed as cell-based, human. How it is done: as §4, with “IBMX. Preadipocytes were maintained in this differentiation medium for 4 to 5 days and subsequently cultured in maintenance medium (70% Gibco DMEM high glucose, 30% HyClone DMEM/F12 1:1, 3% FBS, 1% Antibiotic/Antimycotic, 1 μM Dexamethasone, 33 μM Biotin, 100 nM Insulin, 20 μM Pantothenate) (=day 0 for experiments).” for “IBMX.”
The palmitate-stimulated oxygen consumption rate was measured with the XF 24 analyzer (Seahorse Bioscience, Billerica, Mass., USA) Cells were seeded and differentiated as described above. […] Data for each sample were normalized to the pre-palmitate injection baseline for that sample and expressed as % change from that baseline. […] All data are expressed as mean±SEM. […]

Assay [11] relates to ATGL. The assay can be described thus: ATGL gene expression by qRT-PCR in hASC cells. Conditions: 8 μM Naringenin, 30 μM Nicotinamide Riboside or the combination, 6 days. The format is cell-based, human. Here is the method: as §1, §2
Results were combined and calculated as fold changes of Control and represented as mean±SEM. […]

For the compound `NC(=O)c1ccc[n+]([C@@H]2O[C@H](CO)[C@@H](O)[C@H]2O)c1` [NR, Nicotinamide Riboside], the “CPT1b expression, fold changes of Control” value in assay [1] is listed as around 2.4 fold. In [2], the “PRDM16 expression, fold changes of Control” value is “significantly upregulated”. For the same compound, in assay [3], the “UCP1 expression, fold changes of Control” value is listed as “no independent effect”. The “AdipoQ expression, fold changes of Control” value in assay [4] was “no significant effect”. For the same compound, in assay [5], the “Glut4 expression, fold changes of Control” value is listed as “no independent effect”. In addition, in assay [6], the “ChREBP expression, fold changes of Control” value is listed as “two-fold”. For the same compound, the “increase in NAD+ resulting from administration” value in assay [7] is around 40%. The Sirt1 protein expression result in assay [8] is “no significant effect”. Moreover, in assay [9], the p-AMPK protein expression entry was “no significant effect”.

As to `O=C1C[C@@H](c2ccc(O)cc2)Oc2cc(O)cc(O)c21` [naringenin, Naringenin], the “CPT1b expression, fold changes of Control” value in [1] is around 2.4 fold. In addition, the “PRDM16 expression, fold changes of Control” value in assay [2] is recorded as “significantly upregulated”. Also, in assay [3], the “UCP1 expression, fold changes of Control” value is around 12 fold. Also, the “increase in both basal and palmitate-induced oxygen consumption (fatty acid oxidation)” value in assay [10] is 30-40%. Besides, in assay [11], the “ATGL expression, fold changes of Control” value was “two-fold”. Besides, the “AdipoQ expression, fold changes of Control” value in assay [4] is reported as “modestly but significantly increased”. Also, the “Glut4 expression, fold changes of Control” value in [5] was “two-fold”. For the same compound, in assay [6], the “ChREBP expression, fold changes of Control” value is “two-fold”. For the same compound, the Sirt1 protein expression result in [8] is “significantly increased”. Moreover, in assay [9], the p-AMPK protein expression entry was “significantly increased”.

Regarding `NC(=O)c1ccc[n+]([C@@H]2O[C@H](COP(=O)([O-])O)[C@@H](O)[C@H]2O)c1` [NMN, Nicotinamide mononucleotide], the “increase in NAD+ resulting from administration” value in assay [7] was around 40%.
